# Results as given in US20230364051A1, “FORMULATIONS AND METHODS FOR IMPROVING AVIAN HEALTH” (CORNELL UNIVERSITY, priority 2022, published 2023).
# Marks after values point to notes of the source that are not given here.
# Key:
# [1] = tested on: glial cells; settings: via ceruloplasmin and ferroportin-1; cited from earlier work
# [2] = tested on: duodenum; assay: Duodenal tissue morphology examination (villi, crypts, goblet cells, Paneth cells); type: in vivo, Gallus gallus; settings: for # Crypt Paneth Cells / Crypt Depth / Crypt Goblet Cell Diameter / Crypt Goblet Cell Number Acidic / Crypt Goblet Cell Number Mixture / Crypt Goblet Cell Number Neutral / Crypt Goblet Cell Number Total / Crypt Paneth cell Diameter / Villi Goblet Cell Diameter / Villi Goblet Cell Number Acidic / Villi Goblet Cell Number Mixture / Villi Goblet Cell Number Neutral / Villi Goblet Cell Number Total / Villus Height / Villus Surface Area / Villus Width: day 17, duodenum at hatch
# Experimental: Cornish-cross fertile broiler eggs (Gallus gallus, n = 39) were obtained from a commercial hatchery (Moyer’s chicks, Quakertown, PA, USA). The eggs were incubated under optimal conditions at the Cornell University Animal Science Poultry Farm Incubator [18]. […] Each group was then injected with the specific solution (1 mL per egg) with a 21-gauge needle into the amniotic fluid. Treatments in powder form were separately diluted in DI H2O. […] After injection, the injection holes were sealed with cellophane tape and the eggs were placed in hatching baskets such that each treatment was equally represented at each incubator location. Immediately upon hatch (day 21), blood was taken for hemoglobin determination and all chicks were then euthanized by CO2 exposure. The small intestine, pectoral muscle, cecum, and liver were collected, immediately frozen in liquid nitrogen, and then stored in a -80° C. freezer until analysis.
# Intestinal morphology examination was performed as was previously described. Duodenum samples were fixed in fresh 4 wt. % (v/v) buffered formaldehyde, dehydrated, cleared, and embedded in paraffin. Serial sections were cut at 5 µm and placed on glass slides. Intestinal sections were deparaffinized in xylene, rehydrated in a graded alcohol series, stained with Alcian Blue/Periodic acid-Schiff, and examined by light microscopy. The following variables were measured in the intestine: villus height, villus width, crypt depth, Paneth cell number per crypt, Paneth cell width, goblet cell number, goblet cell diameter, types of goblet cells in the villi epithelium, and types of goblet cells within the crypts. Measurements in each segment were performed with a light microscope using CellSens Standard software (Olympus, Waltham, MA, USA).
# [3] = 1.25 wt. % genistein intraamniotic
# [4] = 2.5 wt. % genistein intraamniotic
# [5] = 2.5 wt. % genistein vs no injection and H2O, p < 0.05
# [6] = 2.5 wt. % vs 1.25 wt. % genistein, p < 0.05
# [7] = both genistein treatment groups vs control groups, p < 0.05
# [8] = genistein treatment groups (1.25, 2.5 wt. %) vs no injection, H2O and inulin, p < 0.05
compound,measurement,setting,value
"O=c1c(-c2ccc(O)cc2)coc2cc(O)cc(O)c12 [Genistein, genistein]",Fe export,[1],significantly increased
same,# Crypt Paneth Cells,[2]; [3],2.92 ± 0.10 ^b
same,Crypt Depth,[2]; [3],26.36 ± 0.46 ^c µm
same,Crypt Goblet Cell Diameter,[2]; [3],2.89 ± 0.02 ^a µm
same,Crypt Goblet Cell Number Acidic,[2]; [3],8.51 ± 0.14 ^a Unit
same,Crypt Goblet Cell Number Mixture,[2]; [3],0.74 ± 0.06 ^d Unit
same,Crypt Goblet Cell Number Neutral,[2]; [3],0.00 ± 0.00 ^a Unit
same,Crypt Goblet Cell Number Total,[2]; [3],9.25 ± 0.14 ^ab Unit
same,Crypt Paneth cell Diameter,[2]; [3],1.78 ± 0.04 ^a µm
same,Villi Goblet Cell Diameter,[2]; [3],3.41 ± 0.03 ^b µm
same,Villi Goblet Cell Number Acidic,[2]; [3],23.49 ± 0.67 ^a Unit
same,Villi Goblet Cell Number Mixture,[2]; [3],1.69 ± 0.13 ^e Unit
same,Villi Goblet Cell Number Neutral,[2]; [3],0.09 ± 0.03 ^b Unit
same,Villi Goblet Cell Number Total,[2]; [3],25.26 ± 0.67 ^a Unit
same,Villus Height,[2]; [3],204.18 ± 3.73 ^b µm
same,Villus Surface Area,[2]; [3],146.97 ± 4.55 ^c mm2
same,Villus Width,[2]; [3],44.51 ± 0.86 ^c µm
same,Crypt goblet cell diameter vs controls,"[2]; 1.25 wt. % genistein vs all control groups, p < 0.05",significantly greater
same,Crypt Paneth cell diameter vs controls,"[2]; 1.25 wt. % genistein vs no injection and 5 wt. % inulin, p < 0.05",significantly (p < 0.05) higher
same,Villus width vs controls,"[2]; 1.25 wt. % genistein vs no injection and H2O, p < 0.05",significantly (p < 0.05) greater
same,# Crypt Paneth Cells,[2]; [4],3.24 ± 0.11 ^a
same,Crypt Depth,[2]; [4],23.65 ± 0.46 ^d µm
same,Crypt Goblet Cell Diameter,[2]; [4],2.63 ± 0.02 ^b µm
same,Crypt Goblet Cell Number Acidic,[2]; [4],8.81 ± 0.19 ^a Unit
same,Crypt Goblet Cell Number Mixture,[2]; [4],0.88 ± 0.06 ^d Unit
same,Crypt Goblet Cell Number Neutral,[2]; [4],0.00 ± 0.00 ^a Unit
same,Crypt Goblet Cell Number Total,[2]; [4],9.68 ± 0.19 ^a Unit
same,Crypt Paneth cell Diameter,[2]; [4],1.65 ± 0.03 ^b µm
same,Villi Goblet Cell Diameter,[2]; [4],3.50 ± 0.03 ^a µm
same,Villi Goblet Cell Number Acidic,[2]; [4],22.01 ± 0.51 ^b Unit
same,Villi Goblet Cell Number Mixture,[2]; [4],2.70 ± 0.16 ^d Unit
same,Villi Goblet Cell Number Neutral,[2]; [4],0.19 ± 0.04 ^a Unit
same,Villi Goblet Cell Number Total,[2]; [4],24.89 ± 0.54 ^a Unit
same,Villus Height,[2]; [4],238.22 ± 3.17 ^a µm
same,Villus Surface Area,[2]; [4],184.13 ± 4.66 ^b mm2
same,Villus Width,[2]; [4],48.27 ± 0.87 ^b µm
same,Crypt goblet cell diameter vs inulin,[2]; 2.5 wt. % genistein vs 5 wt. % inulin,significantly higher
same,Villus height vs controls,[2]; [5],significantly increased
same,Villus surface area vs controls,[2]; [5],significantly increased
same,Villus width vs controls,[2]; [5],significantly increased
same,"Villus height, dose comparison",[2]; [6],significantly higher
same,"Villus surface area, dose comparison",[2]; [6],significantly higher
same,"Villus width, dose comparison",[2]; [6],significantly higher
same,Acidic villi goblet cell count vs controls,[2]; [7],significantly higher
same,Neutral villi goblet cell count vs controls,[2]; [7],significantly higher
same,Mixture villi goblet cells vs controls,"[2]; both genistein treatment groups vs controls, p < 0.05",significantly reduced
same,Acidic crypt goblet cell count vs controls,"[2]; both genistein treatment groups vs no injection, H2O and inulin, p < 0.05",significantly higher
same,Total crypt goblet cell count vs controls,"[2]; genistein exposure vs no injection and H2O, p < 0.05",significantly higher
same,Mixed crypt goblet cells vs controls,"[2]; genistein exposure vs no injection, H2O and inulin, p < 0.05",significantly reduced
same,Total number of villi goblet cells vs controls,[2]; [8],significantly higher
same,Villi goblet cell diameter vs controls,[2]; [8],significantly higher
same,Crypt depth vs control,"[2]; genistein treatment groups vs H2O-injection group, p < 0.05",significantly lower
same,Number of crypt Paneth cells vs controls,"[2]; genistein treatment groups vs no injection, H2O and inulin, p < 0.05",significantly greater
